# Reference: patent US20100215775A1, “USE OF C10-C14-ALKANEDIOLS IN THE PREPARATION OF A COMPOSITION FOR THE PROPHYLAXIS AND/OR TREATMENT OF MALASSEZIA-INDUCED DANDRUFF FORMATION” (SYMRISE GmbH & Co. KG, priority 2006, published 2010)
# System: Malassezia furfur strain DSM6171
# Experiment: MIC value measurement by agar dilution method against Malassezia furfur
# Assay type: cell-based, Malassezia furfur (synonym: Pityrosporum ovale)
# Conditions: for MIC / factor by which activity is greater than that of 1,2-octanediol: Malassezia furfur; for MIC: DSM6171, 72 h; for factor by which activity is greater than that of 1,2-octanediol: ratio of MIC values versus 1,2-octanediol (MIC 225 ppm)
# Description: The antimicrobial action of the alkane-1,2-diols against Malassezia furfur was determined by means of the agar dilution method in accordance with DIN 58 940/ICS and DIN 58 944/ICS. Malassezia furfur strain DSM6171 was used as the test organism. Petri dishes having a diameter of 9 cm and containing 8.7 ml of freshly prepared Mueller-Hinton agar (Merck, art. 1.05437) kept liquid at 50° C. and containing 3% Tween 80 (Merck, art. 8.2217) were used. In order to prepare the test concentrations, ethanolic stock solutions of the alkane-1,2-diol samples were diluted with 96% ethanol until the following final test concentrations of the alkane-1,2-diols in the Mueller-Hinton agar were present: 25,000 ppm, 12,500 ppm, 6300 ppm, 3600 ppm, 1800 ppm, 1100 ppm, 900 ppm, 450 ppm, 225 ppm, 112 ppm, 56 ppm, 28 ppm, 14 ppm, 7 ppm, 4 ppm. 2 agar plates were cast per test concentration and nutrient medium. After solidification and drying (about 1 hour at 37° C.), the test plates were inoculated punctually with in each case 1 μl of the Malassezia furfur (DSM 6171-2.8×10^7 KBE/ml) test organism suspensions. The inoculated plates were subsequently incubated for 72 hours at 30° C. and then evaluated. The lowest active ingredient concentration at which, macroscopically, no growth is present was regarded as the MIC (minimum inhibitory concentration). The MIC values of the alkane-1,2-diols listed in Table 1 were determined in accordance with the general test conditions.
# [1] = agar dilution, Mueller-Hinton agar with 3% Tween 80, 72 hours at 30° C., lowest concentration with no macroscopic growth
MIC [1] [µg/mL],MIC value [1] [ppm],Structure (SMILES),"factor by which activity is greater than that of 1,2-octanediol"
1100,,"CCCCCCCCCCCCCCC(O)CO (stereo not shown) [1,2-Hexadecanediol]",
25000,,"CCCC(O)CO (stereo not shown) [1,2-Pentanediol]",
> 1100,>1100,"CCCCCCCCCCCCCCCCC(O)CO (stereo not shown) [1,2-Octadecanediol]",
225,,"CCCCCCC(O)CO (stereo not shown) [1,2-Octanediol]",
12500,,"CCCCC(O)CO (stereo not shown) [1,2-Hexanediol]",
,,"CCCCCCCCCCC(O)CO (stereo not shown) [1,2-Dodecanediol]",about 16
,,"CCCCCCCCC(O)CO (stereo not shown) [1,2-Decanediol]",about 8
< 7,,"CCCCCCCCCCCCC(O)CO (stereo not shown) [1,2-Tetradecanediol]",at least 32
